Data from patent US9801901B2, “Alginate oligomers for use in overcoming multidrug resistance in bacteria” (priority 2009, dated 2017).
Converted amounts (≈) assume the structure as drawn. Like-named read-outs stand apart in the source and are kept apart here. Marks after values point to notes of the source that are not given here.

Tests used:
[1] = test system: Burkholderia cepacia (1322, V23); test: MIC-assay, Mueller-Hinton broth with G-block alginate, 384-well, OD600
[2] = test system: V9 (Egypt) Acinetobacter baumannii; test: MIC assay, CAMHB with alginate oligomer, no visible growth; assay type: cell-based; settings: Table 5, V9 MDR Acin. baum
[3] = test system: Pseudomonas aeruginosa MDR R22 from China (V1); test: as above; assay type: cell-based; settings: V1 MDR R22 PA
Text: (§1) The study described in Example 1 was repeated with the following strains of bacteria and antibiotics as detailed in Tables 4, 5 and 6.

[4] = test system: V11 5702 (Wales) E. coli; test: as above; assay type: cell-based; settings: Table 5, V11 MDR E.coli
[5] = test system: V10 (Egypt) Acinetobacter lwoffii; test: as above; assay type: cell-based; settings: Table 5, V10 MDR Acin. lwoff
[6] = test system: Staphylococcus aureus (MRSA) U50; test: MIC-assay, Mueller-Hinton broth with G-block alginate, 384-well, OD600 (Table 12); assay type: cell-based; settings: MRSA 1040s, U50 MDR
Text: Minimum inhibitory concentration (MICs) of different antibiotics for strains of Streptococcus oralis and Staphylococcus aureus (MRSA) displaying MDR phenotypes in the presence of varying concentrations of OligoCF-5/20 (0-10%). (MIC values are expressed in μg ml^−1).

[7] = test system: Pseudomonas aeruginosa CFA 24-1, clinical mucoid strain (R80); test: MIC assay, CAMHB with alginate oligomer, no visible growth; assay type: cell-based; settings: R80
[8] = test system: Acinetobacter baumannii MDR ACB from Libya (V4); test: as above; assay type: cell-based; settings: Acinetobacter baumannii, read-out: MIC
Text: as §1
The study described in Example 1 was repeated with the following strains of Acinetobacter baumannii, antibiotics and M-block alginate oligomer in place of OligoG CF-5/20 as detailed in Table 7. The M-block oligomer is 100% M with a DPn of 15 to 18,

[9] = Pseudomonas aeruginosa, Table 1, OligoCF-5/20 0G, read-out: MIC
[10] = Pseudomonas aeruginosa, Table 1, OligoCF-5/20 +2% G, read-out: MIC
[11] = Pseudomonas aeruginosa, Table 1, OligoCF-5/20 +6% G, read-out: MIC
[12] = Pseudomonas aeruginosa, Table 1, OligoCF-5/20 +10% G, read-out: MIC

CC[C@H]1OC(=O)[C@H](C)[C@@H](O[C@H]2C[C@@](C)(OC)[C@@H](O)[C@H](C)O2)[C@H](C)[C@@H](O[C@@H]2O[C@H](C)C[C@H](N(C)C)[C@H]2O)[C@](C)(O)C[C@@H](C)CN(C)[C@H](C)[C@@H](O)[C@]1(C)O [Azithromycin]
MIC ([1]; Table 8, G-block (OligoCF-5/20) 0%): 64 µg/mL (≈ 85.4 µM)
MIC ([1]; Table 8, G-block (OligoCF-5/20) 2%): 32 µg/mL (≈ 42.7 µM)
MIC ([1]; Table 8, G-block (OligoCF-5/20) 6%): 32 µg/mL (≈ 42.7 µM)
MIC ([1]; Table 8, G-block (OligoCF-5/20) 10%): 8 µg/mL (≈ 10.7 µM)
MIC ([2]; Acinetobacter baumannii, OligoCF-5/20 0G, read-out: MIC): 16 µg/mL (≈ 21.4 µM)
MIC ([2]; OligoCF-5/20 +2% G): 4^† μg/ml
MIC ([2]; OligoCF-5/20 +6% G): 0.5^† μg/ml
MIC ([2]; OligoCF-5/20 +10% G): <0.25 µg/mL
MIC [3, 9]: 64 µg/mL (≈ 85.4 µM)
MIC [3, 10]: 64 µg/mL (≈ 85.4 µM)
MIC [3, 11]: 64 µg/mL (≈ 85.4 µM)
MIC [3, 12]: 32 µg/mL (≈ 42.7 µM)
MIC ([3]; Table 2, OligoCF-5/20 0G): 64^†
MIC ([3]; Table 2, OligoCF-5/20 +2% G): 64 µg/mL (≈ 85.4 µM)
MIC ([3]; Table 2, OligoCF-5/20 +6% G): 64 µg/mL (≈ 85.4 µM)
MIC ([3]; Table 2, OligoCF-5/20 +10% G): 32^†
MIC ([4]; Escherichia coli, OligoCF-5/20 0G, read-out: MIC): 32 µg/mL (≈ 42.7 µM)
MIC ([4]; OligoCF-5/20 +2% G): 16^† μg/ml
MIC ([4]; OligoCF-5/20 +6% G): 16^† μg/ml
MIC ([4]; OligoCF-5/20 +10% G): 32 µg/mL (≈ 42.7 µM)
MIC ([5]; Acinetobacter lwoffii, OligoCF-5/20 0G, read-out: MIC): < 0.25 µg/mL
MIC ([5]; OligoCF-5/20 +2% G): <0.25 µg/mL
MIC ([5]; OligoCF-5/20 +6% G): <0.25 µg/mL
MIC ([5]; OligoCF-5/20 +10% G): <0.25 µg/mL
MIC ([6]; G-block (OligoCF-5/20) 0%): 512 µg/mL (≈ 684 µM)
MIC ([6]; G-block (OligoCF-5/20) 2%): 256 µg/mL (≈ 342 µM)
MIC ([6]; G-block (OligoCF-5/20) 6%): 256 µg/mL (≈ 342 µM)
MIC ([6]; G-block (OligoCF-5/20) 10%): 256 µg/mL (≈ 342 µM)
MIC [7, 9]: 256 µg/mL (≈ 342 µM)
MIC [7, 10]: 128 µg/mL (≈ 171 µM)
MIC [7, 11]: 64 µg/mL (≈ 85.4 µM)
MIC [7, 12]: 8 µg/mL (≈ 10.7 µM)
MIC ([7]; Table 2, OligoCF-5/20 0G): 256^†
MIC ([7]; Table 2, OligoCF-5/20 +2% G): 128^†
MIC ([7]; Table 2, OligoCF-5/20 +6% G): 64^†
MIC ([7]; Table 2, OligoCF-5/20 +10% G): 8^†
MIC ([8]; Table 1, V4 ACB (Libya), OligoCF-5/20 0G): 8 µg/mL (≈ 10.7 µM)
MIC ([8]; Table 1, V4 ACB (Libya), OligoCF-5/20 +2% G): 2 µg/mL (≈ 2.67 µM)
MIC ([8]; Table 1, V4 ACB (Libya), OligoCF-5/20 +6% G): < 0.25 µg/mL
MIC ([8]; Table 1, V4 ACB (Libya), OligoCF-5/20 +10% G): < 0.25 µg/mL
MIC ([8]; Table 7, V4 MDR Acin baum (Libya), M-block oligomer 0M): 8 µg/mL (≈ 10.7 µM)
MIC ([8]; Table 7, V4 MDR Acin baum (Libya), M-block oligomer +2% M): 8 µg/mL (≈ 10.7 µM)
MIC ([8]; Table 7, V4 MDR Acin baum (Libya), M-block oligomer +6% M): 8 µg/mL (≈ 10.7 µM)
MIC ([8]; Table 7, V4 MDR Acin baum (Libya), M-block oligomer +10% M): 2 µg/mL (≈ 2.67 µM)
